Measured values reported in patent US9850216B2 (H. LEE MOFFITT CANCER CENTER AND RESEARCH INSTITUTE, INC., priority 2013, dated 2017).
Where “and” joins values, the source holds several entries; their conditions need not be identical. Equal values may be shown once. Read-outs that look alike come from different tables or passages of the source.

Legend:
LNCaP cells = assay: Cell proliferation, trypan blue exclusion, LNCaP; format: cell-based, human; settings: 36 hrs, viable cells by trypan blue exclusion, read-out: IC50, inhibition of cell growth in LNCaP cells
Experimental: (§1) The number of viable cells was counted by trypan blue exclusion assay.
(§2) Three distinct human prostate cancer derived cell lines, LNCaP, LAPC4 and VCaP were either DMSO treated or treated with 1, 2.5, 5, 7.5 and 10 μM of inhibitors, AIM-100, (R)-9b and (S)-9b for 36 hrs and the number of viable cells were counted by trypan blue exclusion assay.
(§3) The ability of the ACK1 inhibitors to suppress proliferation of prostate cancer cell lines were also assessed. AIM-100, an ACK1 inhibitor, originally screened by Amgen was used as a control. […] Overall, it appears that ACK1 is needed for androgen-independent growth of prostate cancer cells.

VCaP cells = assay: Cell proliferation, trypan blue exclusion, VCaP; format: cell-based, human; settings: 36 hrs, viable cells by trypan blue exclusion, read-out: IC50, inhibition of cell growth in VCaP cells
Experimental: as §1, §2, §3

AR [1] = assay: AR protein levels in androgen-deprived prostate cancer cells, immunoblotting; format: cell-based, human; settings: immunoblotting (FIG. 2)
Experimental: Transcriptional regulation of the AR gene itself is a paradigm that merits thorough investigation. […] Whether AR utilizes ACK1 to facilitate its transcriptional co-activator function is not known. […] Cells were also treated with ACK1-specific small molecule inhibitors, DZ1-067 or AIM-100.

prostate xenograft tumor = settings: literature; cited from earlier work
ACK1 [2] = target: T1, ACK1 (Homo sapiens, UniProt Q07912); assay: EGF-induced ACK1 autophosphorylation (Tyr284) in LAPC4 cells, immunoblotting; format: cell-based; design: endogenous in cells; host or cells: LAPC4; settings: pretreated with compound, 5 μM (FIG. 8(a))
Experimental: Inhibition of: LNCaP (FIG. 8(b)); LAPC4 (FIG. 8(c)), and VCaP (FIG. 8(d)) cell growth by AIM-100, (R)-9b, and (S)-9b. Inhibition of ACK1 autophosphorylation in LAPC4 cells treated 5 μM with (R)-9b and (S)-9b (FIG. 8(a)).
ACK1 is a tyrosine kinase that auto-phosphorylates at Tyr284, which is indicative of its kinase activation. To determine inhibitory potential of the compounds from library 9, prostate cancer derived cell line LAPC4 was treated with either EGF ligand alone or added to cells pretreated with the compounds, and equal amounts of cell lysates were subjected to immunoblotting. EGF (epidermal growth factor) ligand causes rapid activation of EGFR (epidermal growth factor receptor), which in turn lead to activation of the ACK1 kinase (FIG. 8(a), lane 2, top panel). […] Actin was used as control, which indicates equal loading of cell lysates (FIG. 8(a), lower panel).

ACK1 [3] = target: T1, ACK1; assay: ACK1 ELISA: phosphorylation of AKT-derived peptide; format: biochemical; settings: 10 μM, Table 1, replicate values listed; for inhibition at 10 µM: read-out: % Inhibition at 10 μM (ELISA)
ACK1 [4] = target: T1, ACK1; assay: 32P Hotspot assay (Reaction Biology), ACK1 IC50; format: biochemical
Experimental: (§4) 8 compounds were tested against […], ACK1, Src and ALK in various combinations. […] Reactions were carried out at 10 μM ATP.

ALK = ALK (Homo sapiens, UniProt Q9UM73); assay: Kinase IC50 profiling, ALK; format: biochemical; settings: Table 4; 10-dose; 10 μM ATP; read-out: Compound IC50 (M), ALK
Experimental: as §4

[5] = system: cell line which is dependent upon ACK1; settings: literature; read-out: IC50, growth of a cell line dependent upon ACK1; cited from earlier work
[6] = attributed to oxidation of dithiolane ring and NMe2; literature; cited from earlier work
ACK1 [7] = target: T1, ACK1; settings: literature; read-out: IC50, inhibition of ACK1 autophosphorylation in intact cells; cited from earlier work
AR [8] = assay: AR mRNA by real time PCR in androgen-deprived prostate cancer cells; format: cell-based, human; settings: overnight treatment (FIG. 3a, b)
Excerpt: Total RNA was isolated followed by qPCR with AR primers. VCaP, *p=0.022; LNCaP, *p=0.042, **p=0.047. […] Total RNA was isolated followed by qPCR with PSA primers.

PSA = PSA mRNA by real time PCR in androgen-deprived prostate cancer cells; format: cell-based, human; settings: overnight treatment (FIG. 3c, d)
Excerpt: Total RNA was isolated followed by qPCR with AR primers. […] Total RNA was isolated followed by qPCR with PSA primers.

pY88-H4 = assay: Endogenous H4 Y88-phosphorylation in LNCaP cells; format: cell-based, human; settings: 16 hrs (FIG. 5b)
Experimental: (§5) In FIG. 5(a), equimolar amounts of purified ACK1 and H4 proteins were incubated in the presence of DZ1-067 (100 nM) and reaction subjected to immunoblotting with pY88-H4 antibodies. […] The nuclear lysates were immunoprecipitated with pY88-H4 antibodies followed by immunoblotting with H4. Lower panel is input lysate.

[9] = metastatic CRPC; literature; cited from earlier work
c-Src = c-Src (Homo sapiens, UniProt P12931); assay: Kinase IC50 profiling, c-Src; format: biochemical; settings: Table 3; 10-dose; 10 μM ATP; read-out: Compound IC50* (M): c-Src
Experimental: as §4

pY88-H4 marks in AR gene = assay: ChIP-qPCR of pY88-H4 marks at the AR gene; format: cell-based, human; settings: cells grown in absence of androgen (FIG. 6)
Experimental: In FIG. 6(a), the human AR gene and two pY88-H4 binding sites are shown. […] VCaP: *p<0.05, **p<0.05; LNCaP: *p<0.05, **p<0.05
To determine whether ACK1 modifies chromatin at AR gene locus, LNCaP and LAPC4 cells grown in the absence of androgen and were treated with DZ1-067. Chromatin immunoprecipitation (ChIP) was performed using pY88-H4 antibodies, followed by real time PCR with primers corresponding to the AR promoter, intron 2 and 3′UTR (FIG. 6a). […] These marks were also deposited at 3′UTR of the AR gene but not at the promoter region (FIG. 6b, c).

[10] = system: AR and H3K4me3 at intron 2 of AR gene; assay: ChIP-qPCR of AR and H3K4me3 at intron 2 of AR gene; format: cell-based, human; settings: absence of androgen (FIG. 7)
Experimental: LNCaP cells treated with DZ1-067 and ChIP was performed using AR, H3K4me3, or IgG antibodies followed by qPCR using primers corresponding to intron 2, or control region. *p<0.05, **p<0.05, ***p<0.05, ****p<0.05.
To determine the functional and physiological relevance of pY88-H4/WDR5 interaction, and given the interaction of AR with MLL associated complex (Grasso C S, et al. The mutational landscape of lethal castration-resistant prostate cancer. Nature. 2012; 487(7406):239-43). ChIP experiments were performed to determine AR and H3K4me3 levels at the intron 2.

ACK1 [11] = target: T1, ACK1; assay: In vitro kinase assay, purified ACK1 and histone H4, pY88-H4 immunoblotting; format: biochemical; design: made in house; host or cells: insect cells; settings: DZ1-067 100 nM (FIG. 5a)
Experimental: as §5
To assess direct binding of ACK1 to H4, in vitro kinase assay was performed using purified ACK1 and H4 (New England Biolabs). Human ACK1 was expressed in insect cells and purified to homogeneity. Immunoblotting with pY88-H4 and pTyr antibodies confirmed that indeed H4 is directly Tyr-phosphorylated by ACK1 (FIG. 5a).

[12] = Table 1, unit inferred, (RB) = Reaction Biology, replicates listed, read-out: IC50
[13] = Table 4, 10-dose, 10 μM ATP, read-out: Compound IC50 (M), ACK1

T1 sequence (Q07912 whole entry): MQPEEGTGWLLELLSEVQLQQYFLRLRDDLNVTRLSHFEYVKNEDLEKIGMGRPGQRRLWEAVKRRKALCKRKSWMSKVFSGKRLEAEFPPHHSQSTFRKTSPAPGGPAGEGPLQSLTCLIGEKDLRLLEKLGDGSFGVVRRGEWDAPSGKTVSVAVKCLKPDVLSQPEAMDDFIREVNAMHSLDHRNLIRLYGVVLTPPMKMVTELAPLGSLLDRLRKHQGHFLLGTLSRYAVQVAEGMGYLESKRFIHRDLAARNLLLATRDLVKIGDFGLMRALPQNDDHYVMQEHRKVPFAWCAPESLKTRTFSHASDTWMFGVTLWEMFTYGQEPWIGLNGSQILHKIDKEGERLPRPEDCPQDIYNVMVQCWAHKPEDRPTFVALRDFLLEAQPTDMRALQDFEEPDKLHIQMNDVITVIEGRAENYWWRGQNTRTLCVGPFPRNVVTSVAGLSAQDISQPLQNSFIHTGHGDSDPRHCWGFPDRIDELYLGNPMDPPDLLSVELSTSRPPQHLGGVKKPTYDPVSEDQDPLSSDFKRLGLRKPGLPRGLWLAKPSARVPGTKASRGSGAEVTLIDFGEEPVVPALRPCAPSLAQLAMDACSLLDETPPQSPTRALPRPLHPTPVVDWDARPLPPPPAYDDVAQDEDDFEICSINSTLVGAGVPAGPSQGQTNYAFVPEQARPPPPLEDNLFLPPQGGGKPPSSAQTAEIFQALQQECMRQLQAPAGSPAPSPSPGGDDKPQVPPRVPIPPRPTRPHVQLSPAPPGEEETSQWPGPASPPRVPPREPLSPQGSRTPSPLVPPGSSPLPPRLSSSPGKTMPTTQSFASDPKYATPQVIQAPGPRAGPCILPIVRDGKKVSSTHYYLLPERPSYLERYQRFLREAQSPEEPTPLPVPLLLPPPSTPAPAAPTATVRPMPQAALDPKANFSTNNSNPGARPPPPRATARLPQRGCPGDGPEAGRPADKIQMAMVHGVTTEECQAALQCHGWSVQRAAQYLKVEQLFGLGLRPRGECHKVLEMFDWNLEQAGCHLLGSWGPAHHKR
Chain of ALK (Q9UM73 19-1620): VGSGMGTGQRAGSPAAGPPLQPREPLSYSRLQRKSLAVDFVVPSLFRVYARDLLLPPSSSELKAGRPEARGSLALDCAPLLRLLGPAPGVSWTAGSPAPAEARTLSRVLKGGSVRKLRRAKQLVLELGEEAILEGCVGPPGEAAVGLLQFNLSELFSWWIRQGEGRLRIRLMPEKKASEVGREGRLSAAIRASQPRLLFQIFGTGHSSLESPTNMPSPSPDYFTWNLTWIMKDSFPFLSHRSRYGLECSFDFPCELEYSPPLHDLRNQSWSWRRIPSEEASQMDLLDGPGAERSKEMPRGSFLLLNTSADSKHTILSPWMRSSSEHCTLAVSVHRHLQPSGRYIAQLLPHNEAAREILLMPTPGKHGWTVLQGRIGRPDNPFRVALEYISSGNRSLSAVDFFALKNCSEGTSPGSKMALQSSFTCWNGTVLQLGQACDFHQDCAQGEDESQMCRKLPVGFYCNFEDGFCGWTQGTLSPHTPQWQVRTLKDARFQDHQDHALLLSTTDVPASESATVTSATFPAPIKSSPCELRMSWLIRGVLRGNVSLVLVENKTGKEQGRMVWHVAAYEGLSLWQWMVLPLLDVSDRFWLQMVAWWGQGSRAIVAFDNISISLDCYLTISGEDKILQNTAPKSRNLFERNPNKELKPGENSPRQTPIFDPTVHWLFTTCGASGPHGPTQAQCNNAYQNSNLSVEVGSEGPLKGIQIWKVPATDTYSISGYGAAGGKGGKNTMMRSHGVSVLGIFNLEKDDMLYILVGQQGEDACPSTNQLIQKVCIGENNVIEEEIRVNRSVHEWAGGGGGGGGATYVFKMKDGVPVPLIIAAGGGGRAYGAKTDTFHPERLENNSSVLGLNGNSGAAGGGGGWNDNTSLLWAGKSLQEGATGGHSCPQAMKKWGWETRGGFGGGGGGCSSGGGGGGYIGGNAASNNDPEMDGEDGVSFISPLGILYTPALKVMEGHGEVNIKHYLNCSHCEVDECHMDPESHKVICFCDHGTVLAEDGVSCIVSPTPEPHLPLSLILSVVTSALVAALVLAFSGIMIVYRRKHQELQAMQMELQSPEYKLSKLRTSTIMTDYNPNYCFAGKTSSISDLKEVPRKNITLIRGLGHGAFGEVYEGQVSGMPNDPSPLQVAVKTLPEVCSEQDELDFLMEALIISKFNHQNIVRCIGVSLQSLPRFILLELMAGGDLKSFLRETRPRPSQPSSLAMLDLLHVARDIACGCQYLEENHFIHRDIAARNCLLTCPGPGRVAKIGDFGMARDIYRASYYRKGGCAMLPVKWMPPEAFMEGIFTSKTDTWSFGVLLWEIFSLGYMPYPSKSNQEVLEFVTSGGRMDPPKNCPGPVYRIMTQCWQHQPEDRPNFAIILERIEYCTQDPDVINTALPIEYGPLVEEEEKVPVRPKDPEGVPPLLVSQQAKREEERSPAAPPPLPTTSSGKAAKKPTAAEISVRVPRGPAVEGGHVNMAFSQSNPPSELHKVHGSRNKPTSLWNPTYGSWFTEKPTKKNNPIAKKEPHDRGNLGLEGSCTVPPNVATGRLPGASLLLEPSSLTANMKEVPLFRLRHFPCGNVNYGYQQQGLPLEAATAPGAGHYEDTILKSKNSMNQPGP
Chain of c-Src (P12931 whole entry): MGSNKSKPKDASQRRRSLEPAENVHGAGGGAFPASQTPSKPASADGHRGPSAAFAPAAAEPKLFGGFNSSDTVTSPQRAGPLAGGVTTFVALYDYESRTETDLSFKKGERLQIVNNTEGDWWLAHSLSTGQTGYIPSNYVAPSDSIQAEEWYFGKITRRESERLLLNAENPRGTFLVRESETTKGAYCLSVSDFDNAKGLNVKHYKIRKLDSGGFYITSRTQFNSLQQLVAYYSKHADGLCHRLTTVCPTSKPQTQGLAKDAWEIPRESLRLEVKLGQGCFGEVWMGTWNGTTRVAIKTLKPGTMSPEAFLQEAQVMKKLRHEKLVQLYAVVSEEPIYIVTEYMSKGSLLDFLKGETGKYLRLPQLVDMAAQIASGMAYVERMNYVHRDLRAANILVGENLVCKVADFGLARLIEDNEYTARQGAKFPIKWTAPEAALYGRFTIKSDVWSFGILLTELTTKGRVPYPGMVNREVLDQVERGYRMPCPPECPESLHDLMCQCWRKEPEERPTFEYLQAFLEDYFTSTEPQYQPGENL

For `c1ccc(-c2oc3ncnc(NC[C@@H]4CCCO4)c3c2-c2ccccc2)cc1` [AIM-100], the IC50 (LNCaP cells) was 7000 nM, the IC50 (VCaP cells) was 4000 nM and the AR protein levels (AR [1]) was “concomitant decrease in AR protein levels”. For the same compound, the “castration and radioresistant prostate xenograft tumor growth” value (prostate xenograft tumor) was “inhibits” and the “ACK1 activation (autophosphorylation) in EGF-treated LAPC4 cells” value (ACK1 [2]) was “significant reduction in ACK1 activation”.

For `CN1CCN(c2ccc(Nc3ncc(Cl)c(NC[C@@H]4CCCO4)n3)cc2)CC1` [DZ1-077, (S)-5-chloro-N2-(4-(4-methylpiperazin-1-yl)phenyl)-N4-((tetrahydrofuran-2-yl)methyl)pyrimidine-2,4-diamine], the “% Inhibition at 10 μM (ELISA)” value (ACK1 [3]) was 94%, the inhibition at 10 µM (ACK1 [3]) was 93% and the IC50 (ACK1 [4]; [12]) was 8.05e-08 M and 8.33e-08 M. For the same compound, the IC50 (ACK1 [4]; [13]) was 8.33e-08 M, the IC50 (ALK) was 2.96e-07 M and the IC50 (LNCaP cells; Homo sapiens, LNCaP) was 1800 nM. The IC50 (VCaP cells; Homo sapiens, VCaP) was 4000 nM.

For `CN(C)CCOc1ccc(-c2oc3ncnc(NCC4SCCS4)c3c2-c2ccccc2)cc1` [Compound 1c], the IC50 [5] is listed as 5 nM and the pharmacokinetic properties [6] is listed as “poor pharmacokinetic properties”.

In the case of `COC(C)(C)CCn1nc(Nc2c(C)cccc2C)c2cnc(Nc3ccccc3)nc21` [Compound 2], the IC50 (ACK1 [7]) is given as 20 nM.

For `COc1cc(N2CCC(N3CCN(C)CC3)CC2)ccc1Nc1ncc(Cl)c(Nc2ccccc2S(=O)(=O)C(C)C)n1` [TAE684], the “ACK1 activation (autophosphorylation) in EGF-treated LAPC4 cells” value (ACK1 [2]) was “significant reduction in ACK1 activation”.

For `CNC(=O)c1ccc(N2C(=S)N(c3ccc(C#N)c(C(F)(F)F)c3)C(=O)C2(C)C)cc1F` [Enzalutamide], the “AR mRNA levels” value (AR [8]) was “no significant change”, the “PSA mRNA levels” value (PSA) was “significantly suppressed PSA mRNA levels” and the “endogenous pY88-phosphorylation of H4 in LNCaP cells” value (“endogenous pY88-phosphorylation” below) (pY88-H4) was “unaffected”. The “CRPC patients in whom effective” value [9] was 12 out of 30 and the overall survival advantage [9] was 4-6 months.

With `CC(O)(CS(=O)(=O)c1ccc(F)cc1)C(=O)Nc1ccc(C#N)c(C(F)(F)F)c1` (centres unmarked) [Casodex] the “AR mRNA levels” value (AR [8]) was “no significant change” and the “PSA mRNA levels” value (PSA) was “significantly suppressed PSA mRNA levels”.

With `C[C@]12CCC(=O)C[C@@H]1CC[C@@H]1[C@@H]2CC[C@]2(C)[C@@H](O)CC[C@@H]12` [DHT] the AR protein levels (AR [1]) was “increased AR levels”, the “AR mRNA levels” value (AR [8]) was “no significant change” and the “endogenous pY88-phosphorylation” value (pY88-H4) was “unaffected”.

With `CN1CCN(c2ccc(Nc3ncc(Cl)c(NC[C@H]4CCCO4)n3)cc2)CC1` [DZ1-067, (R)-5-chloro-N2-(4-(4-methylpiperazin-1-yl)phenyl)-N4-((tetrahydrofuran-2-yl)methyl)pyrimidine-2,4-diamine] the “% Inhibition at 10 μM (ELISA)” value (ACK1 [3]) was 91%, the inhibition at 10 µM (ACK1 [3]) was 93% and the IC50 (ACK1 [4]; [12]) was 5.6e-08 M and 5.78e-08 M and 6.05e-08 M. For the same compound, the IC50 (ACK1 [4]; Table 3, 10-dose, 3-fold dilution from 10 μM, 10 μM ATP, read-out: Compound IC50* (M): ACK1) was 6.05e-08 M, the IC50 (ACK1 [4]; [13]) was 5.78e-08 M and the IC50 (c-Src) was 4.38e-07 M. The IC50 (ALK) was 1.43e-07 M, the IC50 (LNCaP cells; Homo sapiens, LNCaP) was 1800 nM and the IC50 (VCaP cells; Homo sapiens, VCaP) was 2000 nM. The AR protein levels (AR [1]) was “significant downregulation the AR protein”, the “AR mRNA levels” value (AR [8]) was “significantly suppressed” and the “endogenous pY88-phosphorylation” value (pY88-H4) was “eliminated”. For the same compound, the “pY88-H4 epigenetic marks in AR gene (ChIP)” value (pY88-H4 marks in AR gene) was “erased”, the “AR and H3K4me3 methyl marks at intron 2 (ChIP)” value [10] was “abolished” and the “H4 Tyr-phosphorylation by purified ACK1” value (ACK1 [11]) was “abrogated”.
